Results taken from patent publication US20150239889A1, “PYRAZOLOPYRIMIDINE COMPOUND” (MITSUBISHI TANABE PHARMA CORPORATION, priority 2012, published 2015).

These compounds were tested on Hep3B cells (assay: EPO production assay (ELISA of culture supernatant)). Details: Homo sapiens, 3 μmol/L test compound, 48 hours, relative to control (0.1% DMSO), read-out: EPO production stimulation rate with 3 μmol/L test compound.
Assay type: cell-based
Protocol: The stimulatory effect of the compound onEPO production was determined as follows using Hep3B cells.
Cells were seeded on 96 well plates at 40000 cells/well, and the plate was incubated overnight in MEM medium containing 10% fetal bovine serum (FBS) at 37° C. under 5% CO2. The next day, the medium was replaced with MEM containing 0.5% FBS, followed by addition of test compound. The test compound was dissolved in dimethyl sulfoxide and added to the cell so that the final concentration of dimethyl sulfoxide was 0.1%. After incubation for additional 48 hours, the culture supernatant was collected, and EPO contained in the supernatant was determined using ELISA kit (EPO ELISA Kit 11-693-417-001, Roche Co.). The results were expressed as stimulation rate of EPO production (fold), which was calculated as the relative value of the EPO production with 3 μmol/L of the test compound compared to the EPO production without stimulation (control).
Stimulation rate of EPO production (fold)=(EPO production with addition of test compound)/(EPO production of control)
Compound `O=C(O)c1cnn(-c2nc(O)c3c(cnn3Cc3ccc(Cl)c(F)c3)n2)c1` [Example 7] has a fold induction at 3 µM of 3.4. For `O=C(O)c1cnn(-c2nc(O)c3c(cnn3CCCOc3ccc(C(F)(F)F)cc3Cl)n2)c1` [Example 176], the fold induction at 3 µM was 22. `O=C(O)c1cnn(-c2nc(O)c3c(cnn3Cc3ccc(-c4ccc(F)cc4)cc3)n2)c1` [Example 66] gave a fold induction at 3 µM of 33. Work on `C[C@@H](c1ccccc1)n1ncc2nc(-n3cc(C(=O)O)cn3)nc(O)c21` [Example 17] yielded a fold induction at 3 µM of 3.2. `O=C(O)c1cnn(-c2nc(O)c3c(cnn3C[C@H]3CC[C@H](Oc4ccc(C(F)(F)F)cc4)CC3)n2)c1` [Example 152] was tested, and the fold induction at 3 µM was 20. Compound `O=C(O)c1cnn(-c2nc(O)c3c(cnn3CCC3CCCCC3)n2)c1` [Example 160] has a fold induction at 3 µM of 3.6. `O=C(O)c1cnn(-c2nc(O)c3c(n2)c(Cl)nn3CC2CCCCCC2)c1` [Example 226] was tested, and the fold induction at 3 µM was 2.2. `C[C@H](c1ccc(-c2ccccc2)cc1)n1ncc2nc(-n3cc(C(=O)O)cn3)nc(O)c21` [Example 109] showed a fold induction at 3 µM of 20. With `CCC(c1ccc(C(F)(F)F)cc1)n1ncc2nc(-n3cc(C(=O)O)cn3)nc(O)c21` (stereo not drawn) [Example 326] the fold induction at 3 µM was 7.7. `Cc1nn(Cc2ccc(C(F)(F)F)cc2)c2c(O)nc(-n3cc(C(=O)O)cn3)nc12` [Example 444] gave a fold induction at 3 µM of 2.2. Work on `O=C(O)c1cnn(-c2nc(O)c3c(cnn3Cc3ccc4ccccc4c3F)n2)c1` [Example 34] yielded a fold induction at 3 µM of 1.2. For `O=C(O)c1cnn(-c2nc(O)c3c(cnn3CCCOc3ccc(C(F)(F)F)cc3)n2)c1` [Example 175], the fold induction at 3 µM was 15. `O=C(O)c1cnn(-c2nc(O)c3c(cnn3Cc3cccc(-c4ccccc4C(F)(F)F)c3)n2)c1` [Example 47] gave a fold induction at 3 µM of 4.4. In the case of `CC(C)(C)c1ccc(OCCCn2ncc3nc(-n4cc(C(=O)O)cn4)nc(O)c32)cc1` [Example 178], the fold induction at 3 µM is reported as 37. `O=C(O)c1cnn(-c2nc(O)c3c(cnn3CCOc3ccc4c(c3)CCCC4)n2)c1` [Example 208] gave a fold induction at 3 µM of 7.1. In the case of `O=C(O)c1cnn(-c2nc(O)c3c(cnn3Cc3cc(-c4ccccc4)ccc3F)n2)c1` [Example 49], the fold induction at 3 µM is reported as 7.6. For `O=C(O)c1cnn(-c2nc(O)c3c(cnn3CC3CCCCCCC3)n2)c1` [Example 159], the fold induction at 3 µM was 4.5. `C[C@@H](c1ccc(-c2ccccc2)cc1)n1ncc2nc(-n3cc(C(=O)O)cn3)nc(O)c21` [Example 110] was tested, and the fold induction at 3 µM was 56. `O=C(O)c1cnn(-c2nc(O)c3c(cnn3Cc3ccc(Cl)cc3F)n2)c1` [Example 5] showed a fold induction at 3 µM of 2.9. With `CCC(c1ccc(C(F)(F)F)cc1)n1ncc2nc(-n3cc(C(=O)O)cn3)nc(O)c21` (single isomer, unassigned) [Example 327] the fold induction at 3 µM was 9.4. `Cc1cc(Cn2ncc3nc(-n4cc(C(=O)O)cn4)nc(O)c32)ccc1-c1ccccc1F` [Example 94] gave a fold induction at 3 µM of 17. For `O=C(O)c1cnn(-c2nc(O)c3c(cnn3CCc3ccc(Cl)c(Cl)c3)n2)c1` [Example 115], the fold induction at 3 µM was 5.1.

Each compound was assayed against T1, human HIF-PHD3 (Homo sapiens, UniProt Q9H6Z9) (assay: HIF-PHD inhibition assay (fluorescence polarization), human HIF-PHD3). Details: 2-oxoglutaric acid 166 μmol/L.
T1 construct: purchased CrystalGenomics Ltd
T1 sequence (Q9H6Z9 whole entry): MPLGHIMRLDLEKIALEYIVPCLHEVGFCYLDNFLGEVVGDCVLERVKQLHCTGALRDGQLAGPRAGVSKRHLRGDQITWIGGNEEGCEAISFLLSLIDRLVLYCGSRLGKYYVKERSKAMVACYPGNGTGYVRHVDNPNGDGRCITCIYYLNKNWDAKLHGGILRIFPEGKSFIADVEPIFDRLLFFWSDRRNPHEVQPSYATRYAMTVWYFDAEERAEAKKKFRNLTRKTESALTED
Assay type: biochemical
Method in brief: (§1)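 A 5′-fluoresceinamide-labelled substrate with aminocaproic acid linker is used. Enzyme activity is computed by subtracting pre-enzyme polarization from post-enzyme polarization, expressed in mP.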
With `O=C(O)c1cnn(-c2nc(O)c3c(cnn3Cc3ccc(Cl)c(F)c3)n2)c1` [Example 7] the IC50 was 320 nM. `O=C(O)c1cnn(-c2nc(O)c3c(cnn3CCCOc3ccc(C(F)(F)F)cc3Cl)n2)c1` [Example 176] was tested, and the IC50 was 170 nM. Work on `O=C(O)c1cnn(-c2nc(O)c3c(cnn3Cc3ccc(-c4ccc(F)cc4)cc3)n2)c1` [Example 66] yielded an IC50 of 110 nM. Work on `C[C@@H](c1ccccc1)n1ncc2nc(-n3cc(C(=O)O)cn3)nc(O)c21` [Example 17] yielded an IC50 of 480 nM. `O=C(O)c1cnn(-c2nc(O)c3c(cnn3C[C@H]3CC[C@H](Oc4ccc(C(F)(F)F)cc4)CC3)n2)c1` [Example 152] was tested, and the IC50 was 140 nM. `O=C(O)c1cnn(-c2nc(O)c3c(cnn3CCC3CCCCC3)n2)c1` [Example 160] showed an IC50 of 380 nM. `O=C(O)c1cnn(-c2nc(O)c3c(n2)c(Cl)nn3CC2CCCCCC2)c1` [Example 226] gave an IC50 of 1400 nM. With `C[C@H](c1ccc(-c2ccccc2)cc1)n1ncc2nc(-n3cc(C(=O)O)cn3)nc(O)c21` [Example 109] the IC50 was 260 nM. `CCC(c1ccc(C(F)(F)F)cc1)n1ncc2nc(-n3cc(C(=O)O)cn3)nc(O)c21` (stereo not drawn) [Example 326] gave an IC50 of 360 nM. In the case of `Cc1nn(Cc2ccc(C(F)(F)F)cc2)c2c(O)nc(-n3cc(C(=O)O)cn3)nc12` [Example 444], the IC50 is reported as 360 nM. In the case of `O=C(O)c1cnn(-c2nc(O)c3c(cnn3Cc3ccc4ccccc4c3F)n2)c1` [Example 34], the IC50 is reported as 240 nM. `O=C(O)c1cnn(-c2nc(O)c3c(cnn3CCCOc3ccc(C(F)(F)F)cc3)n2)c1` [Example 175] gave an IC50 of 390 nM. Work on `O=C(O)c1cnn(-c2nc(O)c3c(cnn3Cc3cccc(-c4ccccc4C(F)(F)F)c3)n2)c1` [Example 47] yielded an IC50 of 650 nM. For `CC(C)(C)c1ccc(OCCCn2ncc3nc(-n4cc(C(=O)O)cn4)nc(O)c32)cc1` [Example 178], the IC50 was 570 nM. `O=C(O)c1cnn(-c2nc(O)c3c(cnn3CCOc3ccc4c(c3)CCCC4)n2)c1` [Example 208] was tested, and the IC50 was 240 nM. `O=C(O)c1cnn(-c2nc(O)c3c(cnn3Cc3cc(-c4ccccc4)ccc3F)n2)c1` [Example 49] gave an IC50 of 200 nM. In the case of `O=C(O)c1cnn(-c2nc(O)c3c(cnn3CC3CCCCCCC3)n2)c1` [Example 159], the IC50 is reported as 380 nM. Work on `C[C@@H](c1ccc(-c2ccccc2)cc1)n1ncc2nc(-n3cc(C(=O)O)cn3)nc(O)c21` [Example 110] yielded an IC50 of 63 nM. Compound `O=C(O)c1cnn(-c2nc(O)c3c(cnn3Cc3ccc(Cl)cc3F)n2)c1` [Example 5] has an IC50 of 740 nM. For `CCC(c1ccc(C(F)(F)F)cc1)n1ncc2nc(-n3cc(C(=O)O)cn3)nc(O)c21` (single isomer, unassigned) [Example 327], the IC50 was 1200 nM. Work on `Cc1cc(Cn2ncc3nc(-n4cc(C(=O)O)cn4)nc(O)c32)ccc1-c1ccccc1F` [Example 94] yielded an IC50 of 300 nM. In the case of `O=C(O)c1cnn(-c2nc(O)c3c(cnn3CCc3ccc(Cl)c(Cl)c3)n2)c1` [Example 115], the IC50 is reported as 220 nM.

The compounds below were run against T2, human HIF-PHD2 (Homo sapiens, UniProt Q9GZT9) (assay: HIF-PHD inhibition assay (fluorescence polarization), human HIF-PHD2). Details: 2-oxoglutaric acid 3.33 μmol/L.
T2 construct: purchased CrystalGenomics Ltd
T2 sequence (Q9GZT9 2-426 limits assumed): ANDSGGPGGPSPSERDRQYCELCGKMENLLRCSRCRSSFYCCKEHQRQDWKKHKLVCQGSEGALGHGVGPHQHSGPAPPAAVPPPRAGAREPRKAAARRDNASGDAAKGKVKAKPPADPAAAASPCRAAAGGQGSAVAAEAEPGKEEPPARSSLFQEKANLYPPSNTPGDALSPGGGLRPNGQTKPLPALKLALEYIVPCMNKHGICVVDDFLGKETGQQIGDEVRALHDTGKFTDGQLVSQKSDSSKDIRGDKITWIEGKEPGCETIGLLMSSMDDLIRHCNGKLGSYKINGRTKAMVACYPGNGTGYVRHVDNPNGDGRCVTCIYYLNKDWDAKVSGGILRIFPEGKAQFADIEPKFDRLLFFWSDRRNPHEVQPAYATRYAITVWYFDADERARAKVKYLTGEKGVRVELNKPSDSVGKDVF
Assay type: biochemical
Method in brief: as §1
`O=C(O)c1cnn(-c2nc(O)c3c(cnn3Cc3ccc(Cl)c(F)c3)n2)c1` [Example 7] was tested, and the IC50 was 23 nM. With `O=C(O)c1cnn(-c2nc(O)c3c(cnn3CCCOc3ccc(C(F)(F)F)cc3Cl)n2)c1` [Example 176] the IC50 was 19 nM. `O=C(O)c1cnn(-c2nc(O)c3c(cnn3Cc3ccc(-c4ccc(F)cc4)cc3)n2)c1` [Example 66] showed an IC50 of 17 nM. `C[C@@H](c1ccccc1)n1ncc2nc(-n3cc(C(=O)O)cn3)nc(O)c21` [Example 17] gave an IC50 of 65 nM. Compound `O=C(O)c1cnn(-c2nc(O)c3c(cnn3C[C@H]3CC[C@H](Oc4ccc(C(F)(F)F)cc4)CC3)n2)c1` [Example 152] has an IC50 of 20 nM. Compound `O=C(O)c1cnn(-c2nc(O)c3c(cnn3CCC3CCCCC3)n2)c1` [Example 160] has an IC50 of 71 nM. `O=C(O)c1cnn(-c2nc(O)c3c(n2)c(Cl)nn3CC2CCCCCC2)c1` [Example 226] showed an IC50 of 47 nM. In the case of `C[C@H](c1ccc(-c2ccccc2)cc1)n1ncc2nc(-n3cc(C(=O)O)cn3)nc(O)c21` [Example 109], the IC50 is reported as 24 nM. `CCC(c1ccc(C(F)(F)F)cc1)n1ncc2nc(-n3cc(C(=O)O)cn3)nc(O)c21` (stereo not drawn) [Example 326] showed an IC50 of 53 nM. In the case of `Cc1nn(Cc2ccc(C(F)(F)F)cc2)c2c(O)nc(-n3cc(C(=O)O)cn3)nc12` [Example 444], the IC50 is reported as 37 nM. For `O=C(O)c1cnn(-c2nc(O)c3c(cnn3Cc3ccc4ccccc4c3F)n2)c1` [Example 34], the IC50 was 17 nM. `O=C(O)c1cnn(-c2nc(O)c3c(cnn3CCCOc3ccc(C(F)(F)F)cc3)n2)c1` [Example 175] was tested, and the IC50 was 21 nM. `O=C(O)c1cnn(-c2nc(O)c3c(cnn3Cc3cccc(-c4ccccc4C(F)(F)F)c3)n2)c1` [Example 47] gave an IC50 of 77 nM. Work on `CC(C)(C)c1ccc(OCCCn2ncc3nc(-n4cc(C(=O)O)cn4)nc(O)c32)cc1` [Example 178] yielded an IC50 of 24 nM. `O=C(O)c1cnn(-c2nc(O)c3c(cnn3CCOc3ccc4c(c3)CCCC4)n2)c1` [Example 208] was tested, and the IC50 was 14 nM. `O=C(O)c1cnn(-c2nc(O)c3c(cnn3Cc3cc(-c4ccccc4)ccc3F)n2)c1` [Example 49] was tested, and the IC50 was 30 nM. For `O=C(O)c1cnn(-c2nc(O)c3c(cnn3CC3CCCCCCC3)n2)c1` [Example 159], the IC50 was 110 nM. `C[C@@H](c1ccc(-c2ccccc2)cc1)n1ncc2nc(-n3cc(C(=O)O)cn3)nc(O)c21` [Example 110] showed an IC50 of 27 nM. Work on `O=C(O)c1cnn(-c2nc(O)c3c(cnn3Cc3ccc(Cl)cc3F)n2)c1` [Example 5] yielded an IC50 of 130 nM. In the case of `CCC(c1ccc(C(F)(F)F)cc1)n1ncc2nc(-n3cc(C(=O)O)cn3)nc(O)c21` (single isomer, unassigned) [Example 327], the IC50 is reported as 290 nM. Compound `Cc1cc(Cn2ncc3nc(-n4cc(C(=O)O)cn4)nc(O)c32)ccc1-c1ccccc1F` [Example 94] has an IC50 of 65 nM. In the case of `O=C(O)c1cnn(-c2nc(O)c3c(cnn3CCc3ccc(Cl)c(Cl)c3)n2)c1` [Example 115], the IC50 is reported as 24 nM.
